Holding throughout (assay type): in vitro ADME
For data set [1], the target named is CYP3A4 (Homo sapiens, UniProt P08684). Description: In vitro time-dependent inhibition of CYP3A4 (background statement).
In data set [2] the target is T1, OCT2 (Homo sapiens, UniProt O15244).
T1 construct: expressed in transfected cells; host or cells: MDCK-II
T1 sequence (O15244 1-555): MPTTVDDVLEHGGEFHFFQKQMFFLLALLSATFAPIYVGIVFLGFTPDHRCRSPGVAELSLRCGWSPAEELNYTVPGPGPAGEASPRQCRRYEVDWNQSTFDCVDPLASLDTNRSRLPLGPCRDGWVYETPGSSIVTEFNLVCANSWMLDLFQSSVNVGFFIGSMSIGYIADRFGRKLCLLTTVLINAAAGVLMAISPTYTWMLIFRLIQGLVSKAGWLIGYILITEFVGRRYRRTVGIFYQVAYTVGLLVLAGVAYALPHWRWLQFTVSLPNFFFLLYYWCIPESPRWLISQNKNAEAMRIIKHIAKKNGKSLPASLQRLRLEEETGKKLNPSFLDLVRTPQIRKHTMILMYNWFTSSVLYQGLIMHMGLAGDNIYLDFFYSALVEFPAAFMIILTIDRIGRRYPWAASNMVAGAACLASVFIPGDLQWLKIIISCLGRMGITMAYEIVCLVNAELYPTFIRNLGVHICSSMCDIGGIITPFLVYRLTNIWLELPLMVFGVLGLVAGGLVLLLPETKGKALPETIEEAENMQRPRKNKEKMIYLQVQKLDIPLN
The data set is described as follows: Inhibition of OCT2 mediated transport of creatinine in transfected MDCK-II cells (Example 3). As to conditions: probe substrate creatinine, 0.03 to 10 μM. Here is the method: (§1) Substrate dependent inhibition is common among transporters including MATE1 and MATE2-K. In this study, creatinine was used as the probe substrate to assess the inhibitory potency of Tucatinib and ONT-993. OAT2, OCT2, OCT3, MATE1, and MATE2-K are the renal transporters identified to transport creatinine. Tucatinib and its metabolite ONT-993 were tested as potential inhibitors of OAT2, OCT2, MATE1, and MATE2-K mediated transport using creatinine as a probe substrate.
(§2) For this study, MDCK-II were maintained in DMEM with low glucose and 10% FBS. Cells were seeded at 60K±10K cells/well on 96-well, transwell membrane plates approximately 24 hours before transfection. Transport assays were carried out approximately 48 hours after transfection. Cells were transfected and treated to express the transporter of interest or treated with a control vector. The transport of creatinine was determined by radiometric detection.
(§3) Net transporter mediated uptake of the substrate by each transporter was calculated as follows: Net Transporter Mediated Substrate Uptake (pmol/min/cm^2)=(Cellular accumulation in the presence of the transporter)−(Mean cellular accumulation in the absence of the transporter.
(§4) Percent inhibition was calculated as follows: Percent inhibition=100−(100*(transporter mediated uptake)with inhibition/(transporter mediated uptake)without inhibition) […]

In data set [3] the target is T2, OAT2 (Homo sapiens, UniProt Q9Y694).
T2 construct: expressed in transfected cells; host or cells: MDCK-II
T2 sequence (Q9Y694 1-548): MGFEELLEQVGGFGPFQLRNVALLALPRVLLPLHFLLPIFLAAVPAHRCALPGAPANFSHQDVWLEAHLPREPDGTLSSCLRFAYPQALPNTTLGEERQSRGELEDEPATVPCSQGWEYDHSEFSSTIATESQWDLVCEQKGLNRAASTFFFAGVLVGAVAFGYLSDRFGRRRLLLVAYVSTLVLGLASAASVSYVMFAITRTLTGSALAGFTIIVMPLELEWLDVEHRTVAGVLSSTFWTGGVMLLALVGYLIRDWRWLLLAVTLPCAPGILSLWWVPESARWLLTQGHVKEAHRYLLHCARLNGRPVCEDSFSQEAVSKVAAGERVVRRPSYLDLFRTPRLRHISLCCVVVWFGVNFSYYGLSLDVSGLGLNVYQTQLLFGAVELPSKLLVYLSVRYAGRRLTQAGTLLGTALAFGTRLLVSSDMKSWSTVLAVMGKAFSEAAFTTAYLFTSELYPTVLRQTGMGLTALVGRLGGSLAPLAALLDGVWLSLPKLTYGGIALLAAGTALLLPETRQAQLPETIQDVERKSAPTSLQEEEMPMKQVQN
The data set is described as follows: Inhibition of OAT2 mediated transport of creatinine in transfected MDCK-II cells (Example 3). To be noted: MDCK-II, read-out: Maximum inhibition of OAT2 mediated transport of creatinine. Here is the method: as §1, §2, §3, §4

In data set [4] the target is T3, UGT1A1 (Homo sapiens, UniProt P22309).
T3 construct: tissue BioreclamationIVT (Baltimore, Md.); host or cells: pooled human liver microsomes, 150 donors
T3 sequence (P22309 26-533): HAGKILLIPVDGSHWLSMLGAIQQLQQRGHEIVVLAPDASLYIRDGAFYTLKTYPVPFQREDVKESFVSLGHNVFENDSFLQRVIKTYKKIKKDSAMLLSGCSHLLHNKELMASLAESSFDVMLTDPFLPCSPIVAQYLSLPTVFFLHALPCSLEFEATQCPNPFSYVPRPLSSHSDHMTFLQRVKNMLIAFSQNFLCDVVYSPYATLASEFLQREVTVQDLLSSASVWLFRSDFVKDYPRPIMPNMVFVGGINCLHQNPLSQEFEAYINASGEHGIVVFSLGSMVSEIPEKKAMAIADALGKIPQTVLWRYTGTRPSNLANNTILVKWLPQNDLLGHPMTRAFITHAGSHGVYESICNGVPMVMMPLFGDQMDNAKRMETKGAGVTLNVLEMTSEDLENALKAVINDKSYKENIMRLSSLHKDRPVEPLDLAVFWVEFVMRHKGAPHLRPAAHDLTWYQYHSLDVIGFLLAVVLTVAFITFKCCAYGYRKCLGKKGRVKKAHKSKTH
The data set is described as follows: Ki determination in pooled human liver microsomes, β-estradiol 3-glucuronidation (Example 5). The method, then: The objective of this study was to evaluate in vitro the Ki of tucatinib of the following human hepatic cytochrome P450 (CYP) enzymes (CYP2C8, CYP2C9, and CYP3A4) and UGT1A1. […] Pooled human liver microsomes (HLM) from 150 individuals (79 males and 71 females) were obtained from BioreclamationIVT (Baltimore, Md.) and stored at approximately −70° C. The microsomes were characterized by the supplier for total protein and selected cytochrome P450 activities. […] The final organic solvent contribution was ≤1%. Incubations were terminated by the addition of chilled acetonitrile containing a stable isotope-labeled internal standard. […] Samples were analyzed by liquid chromatography with tandem mass spectrometry (LC-MS/MS). Analyte concentrations were quantified by LC-MS/MS and interpolated from standard curves of authentic analyte. […] Activities were calculated based on analyte concentration, incubation time, and protein concentration. Enzymatic activity (pmol/minute/mg protein) was expressed as the formation of the analyte per final protein concentration per incubation time. Activity remaining was expressed as the enzymatic activity at each concentration point of the test article normalized by the solvent control mean activity. […]
Background: Liver microsomes are a subcellular fraction often used to study metabolism.

By IC50 is commonly meant the concentration that inhibits the measured activity by half. As usually defined, the inhibition is the drop in the measured response relative to a control, in per cent. One may read the Ki as the equilibrium dissociation constant of an inhibitor or competing ligand from its target. Lower therefore signals a stronger hold on the target.

CYP3A4, sequence (P08684 whole entry): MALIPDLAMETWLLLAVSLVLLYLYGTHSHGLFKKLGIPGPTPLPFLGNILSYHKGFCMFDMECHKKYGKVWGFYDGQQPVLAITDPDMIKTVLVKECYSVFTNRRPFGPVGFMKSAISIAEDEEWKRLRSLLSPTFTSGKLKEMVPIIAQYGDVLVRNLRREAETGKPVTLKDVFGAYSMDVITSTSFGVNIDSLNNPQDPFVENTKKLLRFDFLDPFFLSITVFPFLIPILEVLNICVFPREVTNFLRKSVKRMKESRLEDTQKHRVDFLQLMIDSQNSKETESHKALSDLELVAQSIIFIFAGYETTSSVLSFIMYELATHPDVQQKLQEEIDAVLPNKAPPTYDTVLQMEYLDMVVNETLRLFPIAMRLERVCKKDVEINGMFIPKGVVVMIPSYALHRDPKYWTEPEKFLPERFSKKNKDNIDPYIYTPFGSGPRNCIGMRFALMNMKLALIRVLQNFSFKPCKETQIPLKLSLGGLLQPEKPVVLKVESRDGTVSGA

On to `Cc1cc(Nc2ncnc3ccc(NC4=NC(C)(C)CO4)cc23)ccc1Oc1ccn2ncnc2c1` [tucatinib], for which the “Time-dependent inhibition of CYP3A4” value in data set [1] is “no time-dependent inhibition”. The compound also returned an IC50 in data set [2] of 0.107 ± 0.0379 µM. Besides, the inhibition at 10 µM in data set [3] was 14.7%. In addition, the “Inhibition mechanism, UGT1A1” value in data set [4] is on record as “competitive inhibition”. This compound also displayed a Ki in data set [4] (marker substrate β-estradiol) of 1.81 µM.

Source of the values: patent publication US20220193076A1, “METHODS OF TREATING BREAST CANCER WITH TUCATINIB” (Seagen Inc., priority 2019, published 2022).
